Common to all, as to type: in vivo
For experiment [1], the system named is Aphis gossypii. As to the kind of experiment: Test Example 2: foot drench of cucumber seedling on urethane mat, Aphis gossypii. The conditions noted are these: soil, 168 h, 5 ml drench at foot of cucumber seedling on urethane mat, inoculated one day after treatment, checked seven days after. How it is done: The formulations of the present active compounds (4), (5), (8), (9), (11), (12), (14), (15), (17), (20), (35) to (45), (48) to (51), (54) to (56), (206), (209) and (211) to (213) obtained by Formulation Example 5 were diluted with water so that the active ingredient concentration was 500 ppm, to prepare diluted solutions for test. Separately, a cucumber seedling (second true leaf spreading stage) planted on a urethane mat was drenched at its foot with each 5 ml of the diluted solutions, and one day after treatment, the cucumber leaf surface was inoculated with 30 Aphis gossypii (whole stage). Further seven days after, the number of insect of living Aphis gossypii […] on the leaves of this cucumber was checked, and the control value was calculated according to the following formula. Control value (%)={1-(Cb×Tai)/(Cai×Tb)}×100 Letters in the formula represent the following meanings. Cb: the number of insect before treatment on non-treated district Cai: the number of insect in observation on non-treated district Tb: the number of insect before treatment on treated district Tai: the number of insect in observation on treated district

The subject of a further experiment is Nilaparvata lugens. As to the kind of experiment: Test Example 7: foot drench of rice seedling, thirty first instar larvae of Nilaparvata lugens. The conditions noted are these: soil, 144 h, 5 ml drench at foot of rice seedling, kept 7 days, thirty first instar larvae released, further 6 days. How it is done:
The formulations of the present active compounds (11), (13) to (15), (17), (23), (26), (35) to (41), (43) to (45), (48) to (51), (54), (55), (209), (211) and (212) obtained by Formulation Example 5 were diluted with water so that the active ingredient concentration was 500 ppm, to prepare diluted solutions for test. Separately, a rice seedling (2 weeks after sowing, second leaf spreading stage) planted on a plastic cup was drenched at its foot with each 5 ml of the diluted solutions, and kept in a greenhouse of 25° C. for 7 days. Thirty first instar larvae of Nilaparvata lugens were released, and further kept in the greenhouse for 6 days. The number of insect of living Nilaparvata lugens […] on rice was checked, and the control value was calculated according to the following formula. Control value (%)={1-(Cb×Tai)/(Cai×Tb)}×100 Letters in the formula represent the following meanings. Cb: the number of insect before treatment on non-treated district Cai: the number of insect in observation on non-treated district Tb: the number of insect before treatment on treated district Tai: the number of insect in observation on treated district

The subject of experiment [2] is Aphis gossypii. As to the kind of experiment: Test Example 4: foot drench of cucumber seedling in plastic cup, inoculation after 7 days, Aphis gossypii. The conditions noted are these: soil, 144 h, 5 ml drench at foot of cucumber seedling in plastic cup, kept 7 days at 25° C., inoculated, further 6 days. On the procedure:
The formulations of the present active compounds (3) to (7), (17), (19), (20), (22), (29) to (31), (35) to (37), (39), (41) to (45), (47) to (56), (101), (106), (121) to (123), (128), (131), (137), (139), (143), (145), (147), (211) to (213), (216) and (217) obtained by Formulation Example 5 were diluted with water so that the active ingredient concentration was 500 ppm, to prepare diluted solutions for test. Separately, a cucumber seedling (second true leaf spreading stage) planted on a plastic cup was drenched at its foot with each 5 ml of the diluted solutions, and kept in a greenhouse of 25° C. for 7 days. The cucumber leaf surface was inoculated with 30 Aphis gossypii (whole stage), and further kept in the greenhouse for 6 days, then, the number of insect of living Aphis gossypii […] on the leaves of this cucumber was checked, and the control value was calculated according to the following formula. Control value (%)={1-(Cb×Tai)/(Cai×Tb)}×100 Letters in the formula represent the following meanings. Cb: the number of insect before treatment on non-treated district Cai: the number of insect in observation on non-treated district Tb: the number of insect before treatment on treated district Tai: the number of insect in observation on treated district

A further experiment relates to Bemisia tabaci. In words: Test Example 5: spray on tomato seedling with Bemisia tabaci larvae. The conditions noted are these: 168 h, 10 ml/cup sprayed on tomato seedling with hatching Bemisia tabaci larvae, 7 days at 25° C. How it is done:
The formulations of the present active compounds (1) to (5), (7) to (15), (17) to (21), (25), (28) to (45), (48) to (56), (101) to (103), (106), (107), (117), (118), (121) to (145), (147) to (151), (153) to (155), (204), (206), (208), (209), (211) to (213) and (216) to (221) obtained by Formulation Example 5 were diluted with water so that the active ingredient concentration was 500 ppm, to prepare spray solutions for test. Separately, on a tomato seedling planted on a plastic cup, Bemisia tabaci adult insects were released and allowed to lay eggs for about 24 hours. The tomato seedling was kept in a greenhouse […], and the above-described spray solutions for test were sprayed at a proportion of 10 ml/cup on the condition of hatching of larvae from the laid eggs, and kept in a greenhouse of 25° C. for 7 days. The number of living larvae on the tomato leaves was checked, and the control value was calculated according to the following formula. Control value (%)={1−(Cb×Tai)/(Cai×Tb)}×100 Letters in the formula represent the following meanings. Cb: the number of insect before treatment on non-treated district Cai: the number of insect in observation on non-treated district Tb: the number of insect before treatment on treated district Tai: the number of insect in observation on treated district

Experiment [3] has as its system Aphis gossypii. As to the kind of experiment: Test Example 3: root immersion of cucumber seedling, Aphis gossypii. The conditions noted are these: 168 h, cucumber root part immersed in 5 ml, inoculated one day after treatment, checked seven days after. On the procedure:
The formulations of the present active compounds (18), (19), (21), (22), (24), (25), (28), (31) to (34), (46), (47), (52), (53), (101) to (104), (106) to (108), (112) to (114), (117), (118), (122), (123), (126), (128), (129), (133), (134), (138), (144), (153) to (155) and (157) obtained by Formulation Example 5 were diluted with water so that the active ingredient concentration was 500 ppm, to prepare diluted solutions for test. A root part of a cucumber seedling (first true leaf spreading stage) from which soil had been washed off was immersed in 5 ml of this diluted solution, and one day after treatment, the cucumber leaf surface was inoculated with 30 Aphis gossypii (whole stage). Further seven days after, the number of insect of living Aphis gossypii […] on the leaves of this cucumber was checked, and the control value was calculated according to the following formula. Control value (%)={1-(Cb×Tai)/(Cai×Tb)}×100 Letters in the formula represent the following meanings. Cb: the number of insect before treatment on non-treated district Cai: the number of insect in observation on non-treated district Tb: the number of insect before treatment on treated district Tai: the number of insect in observation on treated district

Take `CC(C)Oc1cnccc1-c1nc2cc(C(F)(F)F)ccc2n1C` [present active compound 11, 2-(3-isopropoxypyridin-4-yl)-1-methyl-5-trifluoromethyl-1H-benzimidazole]: the pest or weed control at 500 ppm with Aphis gossypii [1] and in the experiment on Nilaparvata lugens was no less than 90% in each case.
Regarding `Cn1c(-c2ccncc2OCCF)nc2cc(C(F)(F)F)ccc21` [present active compound 15, 2-[3-(2-fluoroethoxy)-pyridin-4-yl]-1-methyl-5-trifluoromethyl-1H-benzimidazole], the pest or weed control (in general, how far the test organism was held down) at 500 ppm in the experiment with Aphis gossypii [1] was no less than 90%.
`CSc1cnccc1-c1nc2cc(C(F)(F)F)ccc2n1C` [present active compound 17, 1-methyl-2-(3-methylthiopyridin-4-yl)-5-trifluoromethyl-1H-benzimidazole]: the pest or weed control at 500 ppm in the experiment on Aphis gossypii [1], in the experiment with Nilaparvata lugens and in the experiment on Aphis gossypii [2] was no less than 90% in each case.
Turning to `CCSc1cnccc1-c1nc2cc(C(F)(F)F)ccc2n1C` [present active compound 20, 2-(3-ethylthiopyridin-4-yl)-1-methyl-5-trifluoromethyl-1H-benzimidazole], the pest or weed control at 500 ppm with Aphis gossypii [1] and in the experiment with Aphis gossypii [2] was no less than 90% in each case.
Take `CC(C)Sc1cnccc1-c1nc2cc(C(F)(F)F)ccc2n1C` [present active compound 23, 2-(3-isopropylthiopyridin-4-yl)-1-methyl-5-trifluoromethyl-1H-benzimidazole]: in the experiment on Nilaparvata lugens, the pest or weed control at 500 ppm was no less than 90%.
Still for that read-out and setting: for `Cn1c(-c2ccnc(F)c2)nc2cc(C(F)(F)F)ccc21` [present active compound 26, 2-(2-fluoropyridin-4-yl)-1-methyl-5-trifluoromethyl-1H-benzimidazole] the value was no less than 90%; for `Cn1c(-c2ccncc2SCC(F)(F)F)nc2cc(C(F)(F)F)cnc21` [present active compound 54, 3-methyl-2-[3-(2,2,2-trifluoroethylthio)pyridin-4-yl]-6-trifluoromethyl-3H-imidazo[4,5-b]pyridine], no less than 90%; for `Cn1c(-c2cc[n+]([O-])cc2)nc2cc(C(F)(F)F)cnc21` [present active compound 55, 3-methyl-2-(1-oxypyridin-4-yl)-6-trifluoromethyl-3H-imidazo[4,5-b]pyridine], no less than 90%.
For the compound `Cn1c(-c2ccncc2SC(C)(C)C)nc2cc(C(F)(F)F)cnc21` [present active compound 107], in the experiment with Bemisia tabaci, the pest or weed control at 500 ppm was no less than 90%.
As for `CNS(=O)(=O)c1cnccc1-c1nc2cc(C(F)(F)F)cnc2n1C` [present active compound 117], the pest or weed control at 500 ppm with Bemisia tabaci and in the experiment on Aphis gossypii [3] was no less than 90% each time.
Consider `Cn1c(-c2ccncc2C#N)nc2cc(C(F)(F)F)cnc21` [present active compound 118], for which the pest or weed control at 500 ppm in the experiment with Bemisia tabaci and with Aphis gossypii [3] was no less than 90% each time.
Turning to `CCn1c(-c2ccncc2)nc2ccc(C(F)(F)F)cc21` [present active compound 204, 1-ethyl-2-pyridin-4-yl-6-trifluoromethyl-1H-benzimidazole], in the experiment on Bemisia tabaci, the pest or weed control at 500 ppm is no less than 90%.
On to `C#Cc1cnccc1-c1nc2cc(C(F)(F)F)cnc2n1C` [present active compound 211, 2-(3-ethynylpyridin-4-yl-)-3-methyl-6-trifluoromethyl-3H-imidazo[4,5-b]pyridine], for which the pest or weed control at 500 ppm with Nilaparvata lugens is no less than 90%.
Same read-out and setting: as for `Cn1c(-c2ccncc2C(F)(F)F)nc2cc(C(F)(F)F)cnc21` [present active compound 212, 3-methyl-6-trifluoromethyl-2-(3-trifluoromethylpyridin-4-yl-)-3H-imidazo[4,5-b]pyridine], the figure is no less than 90%.

Values taken from US8461181B2, “Fused heterocyclic compound and use thereof” (Sumitomo Chemical Company, Ltd., priority 2009, dated 2013).
